The text below walks through data of patent publication US10208043B2, “Methods for inhibiting fascin” (Novita Pharmaceuticals, Inc., priority 2012, dated 2019).

Assay [1] concerns MDA-MB-231 breast tumor cells. Kind of assay: Boyden-chamber cell migration assay, MDA-MB-231. It counts as cell-based. To be noted: Homo sapiens. The protocol:
(§1) Since fascin is critical for tumor cell migration, inhibitors of fascin should block tumor cell migration. Representative compounds were selected from the above-identified fascin inhibitors to test their abilities on inhibition of tumor cell migration (See Table 2). […] The cell lines used are listed below.
(§2) Exemplifying procedure: MDA-MB-231 cells (5×10^4) or 4T1 Cells (1×10^5) suspended in 100 μL starvation medium were added to the upper chamber of an insert (6.5 mm diameter, 8 μm pore size; Becton Dickson), and the insert was placed in a 24-well plate containing 700 μL starvation medium with or without 10% FBS. […] Migration assays were performed for 6 h and cells were fixed with 3.7% formaldehyde. Cells were stained with crystal violet staining solution, and cells on the upper side of the insert were removed with a cotton swab. Three randomly selected fields (×10 objectives) on the lower side of the insert were photographed, and the migrated cells were counted. Migration was expressed as average number of migrated cells in a field.

Assay [2] concerns PC-3 prostate tumor cells. Kind of assay: Boyden-chamber cell migration assay, PC-3. Format: cell-based. The protocol: (§3) Since fascin is critical for tumor cell migration, inhibitors of fascin should block tumor cell migration. Representative compounds were selected from the above-identified fascin inhibitors to test their abilities on inhibition of tumor cell migration (See Table 2). […] Therefore, tumor cells with fascin expression are likely sensitive to these fascin inhibitors. The cell lines used are listed below.
(§4) Exemplifying procedure: MDA-MB-231 cells (5×10^4) or 4T1 Cells (1×10^5) suspended in 100 μL starvation medium were added to the upper chamber of an insert (6.5 mm diameter, 8 μm pore size; Becton Dickson), and the insert was placed in a 24-well plate containing 700 μL starvation medium with or without 10% FBS. When used, inhibitors were added to the lower chamber. Migration assays were performed for 6 h and cells were fixed with 3.7% formaldehyde. Cells were stained with crystal violet staining solution, and cells on the upper side of the insert were removed with a cotton swab. Three randomly selected fields (×10 objectives) on the lower side of the insert were photographed, and the migrated cells were counted. Migration was expressed as average number of migrated cells in a field.

Assay [3] concerns 4T1 breast tumor cells. The experiment in a line: Boyden-chamber cell migration assay, 4T1. Format: cell-based. The method, then: as §1, §2
The subject of assay [4] is 4T1 breast tumor cells. The experiment in a line: Tumor metastasis in mouse models (lung metastasis, 6-thioguanine clonogenic assay). To be noted: 4T1 cells in mammary fat-pad, n=5, P<0.01. It counts as in vivo, Balb/c mice. The protocol: Lung metastasis was measured by the 6-thioguanine clonogenic assay. […] Results are mean±SD (n=5). *, P<0.01.
Tumor cell migration is essential for tumor metastasis. […] Tumor cells (4T1 breast tumor cells) were injected into the mammary fat-pad of mice. The metastasis of these breast tumor cells from the mammary gland to the lung was monitored by the clonogenic assay.
Balb/c mice were purchased from Charles River. All animal procedures were approved by the Animal Care and Use Committees of the Weill Cornell Medical College and performed in accordance with institutional polices. For xenograft tumor metastasis studies, 5×10^5 4T1 cells were suspended in 100 μL PBS and injected subcutaneously into the mammary glands of 6-8 week old female Balb/c mice. Tumor incidence was monitored for 21 days after injection. Tumor size was measured three times a week, and the volume was calculated using the formula length×width^2×0.5. Compound treatment was initiated 7 days after tumor implantation; animals were administered daily with indicated dose for 2 weeks. On day 28, the mice were sacrificed. Numbers of metastatic 4T1 cells in lungs were determined by the clonogenic assay. […] Data are expressed as mean±S.D. and analyzed by Student's t test with significance defined as p<0.05.

The test system of a further assay is LLC lung tumor cells. The experiment in a line: Boyden-chamber cell migration assay, LLC. Format: cell-based. The protocol:
as §3, §4

Another assay concerns the target fascin (Homo sapiens (Human), UniProt Q16658). The experiment in a line: High throughput fascin inhibition assay (actin bundling, F-actin imaging). It counts as biochemical. The method, then: A high throughput assay was developed to screen for fascin specific inhibitors. Purified polymerized F-actin with or without fascin were mixed and incubated to allow actin bundle formation. F-actin polymers were then bound to the poly-D-lysine coated plates. […] Four images were taken from each well and the average fiber length was analyzed for each tested compound.
Recombinant human fascin 1 was expressed as a GST fusion protein in BL21 Escherichia coli. One liter of 2YT medium with ampicillin was inoculated overnight with 3 mL of BL21/DE3 culture transformed with pGEX4T-fascin 1 plasmid and grown at 37° C. until attenuance at 600 nm (D600) reached about 0.8. The culture was then transferred to 18° C. and induced by the addition of 0.1 mM isopropyl β-d-thiogalactoside (IPTG) for 12 h. Bacteria were harvested by centrifugation at 5,000 r.p.m. for 10 min. The pellets were suspended in 30 mL of PBS supplemented with 0.2 mM PMSF, 1 mM DTT, 1% (v/v) Triton X-100 and 1 mM EDTA. After sonication, the suspension was centrifuged at 15,000 r.p.m. for 30 min to remove the cell debris. The supernatant was then incubated for 2 h with 4 mL of glutathione beads (Sigma) at 4° C. After extensive washing with PBS, the beads were resuspended in 10 mL of thrombin cleavage buffer (20 mM Tris-HCl pH 8.0, 150 mM NaCl, 2 mM CaCl2, 1 mM DTT). Fascin was released from the beads by incubation overnight with 40-100 U of thrombin at 4° C. After centrifugation, 0.2 mM PMSF was added to the supernatant to inactivate the remnant thrombin activity. The fascin protein was further concentrated with a Centricon® (Boca Raton, Fla.) filter to about 50 mg/mL.
About 150,000 compounds were screened. […] Purified fascin protein (15 μL of 0.5 μM) in buffer (100 mM KCl, 20 mM Tris/HCl, pH 7.5, 2 mM MgCl2) was added into each well of a clear 384-well flat-bottom plate (Corning) using Thermo Multidrop Combi (Fisher). Compound ([…]) solutions (5 mM stock) from various chemical libraries were pin transferred from stock 384-well plates into the 384-well assay plates and incubated for 30 min. Then 15 μL of 0.5 μM polymerized actin (in 100 mM KCl, 20 mM Tris/HCl, pH 7.5, 2 mM MgCl2, 1 mM DTT, 1 mM ATP) (Cytoskeleton Inc.) was added, resulting in 30 μM final concentration for chemical compounds. […] Mixed solution (25 μL) was then transferred to one well in a black 384-well plate coated with poly-D-lysine, and stained actin bundles or F-actin would stick onto the poly-D-lysine plates. After the plates were thoroughly washed with 1×PBS for 3 times, the plate was imaged using an ImageXpress Micro High Content Screening System (Molecular devices). The images were processed and analyzed using MetaMorph software. The raw image data for each well was background-corrected by subtraction of the median intensities across all wells on the plate. The background-corrected data was used to compute the bundle length for each well. The negative control wells were employed for quality control: multiple DMSO-only control wells (16 wells/plate) were present on each assay plate.

The test system of assay [5] is DU145 prostate tumor cells. The experiment in a line: Boyden-chamber cell migration assay, DU145. Format: cell-based. The conditions noted are these: Homo sapiens, DU-145. The method, then:
as §3, §4

Where [6] appears, read: Actin + Fascin + compound at 30 μM.

The IC50 is the concentration at which inhibition is half-maximal. A low value points to greater potency. As for `O=[N+]([O-])c1ccc(Cl)c(S(=O)(=O)Nc2nc3ccc(Cl)cc3s2)c1` [Compound 3, 2-chloro-N-(6-chlorobenzo[d]thiazol-2-yl)-5-nitrobenzenesulfonamide], the IC50 in assay [1] came out at 25 µM; in assay [2] it was 25 µM; with 4T1 breast tumor cells [3], 20 µM; with LLC lung tumor cells, 25 µM; on fascin it was 0.652 µM; in assay [5], 25 µM. Besides, the “tumor metastasis from mammary gland to lung” value in the assay on 4T1 breast tumor cells [4] (8 mg/kg daily for 2 weeks) is listed as “decreased the tumor metastasis”. Moreover, at fascin (30 μM), the fiber growth result is listed as “inhibited fiber growth”. In addition, the Average fiber length at fascin (setting [6]) was found to be 0.39 arbitrary unit. The Average fiber thickness on fascin (setting [6]) is on record as 0.35 arbitrary unit.

Regarding `C/N=c1/nc(-c2ccccc2)n(-c2ccccc2)s1` [Compound 4, (Z)-N-(2,3-diphenyl-1,2,4-thiadiazol-5(2H)-ylidene)methanamine], the IC50 in assay [1] is 30 µM; in the assay with 4T1 breast tumor cells [3] it was 50 µM; against fascin, 0.5 µM.

For `COc1ccc(S(=O)(=O)Nc2cc(Sc3nc[nH]n3)c(O)c3ccccc23)cc1` [Compound 10, N-(3-(1H-1,2,4-triazol-3-ylthio)-4-hydroxynaphthalen-1-yl)-4-methoxybenzenesulfonamide], the “tumor metastasis from mammary gland to lung” value in the assay on 4T1 breast tumor cells [4] (30 mg/kg daily for 2 weeks) was “decreased the tumor metastasis”. In addition, the half-inhibitory concentration (IC50) at fascin was 0.807 µM.

For `O=C(/C=C/c1ccccc1)Nc1nc2ccccc2s1` [Compound 20, N-(benzo[d]thiazol-2-yl)cinnamamide], the IC50 is approximately 60 µM in the assay with 4T1 breast tumor cells [3] and approximately 4 µM against fascin.
